For the test, the target named is T1, Tyrosine-protein phosphatase non-receptor type 1 (Homo sapiens, UniProt P18031).
T1 sequence (P18031 whole entry): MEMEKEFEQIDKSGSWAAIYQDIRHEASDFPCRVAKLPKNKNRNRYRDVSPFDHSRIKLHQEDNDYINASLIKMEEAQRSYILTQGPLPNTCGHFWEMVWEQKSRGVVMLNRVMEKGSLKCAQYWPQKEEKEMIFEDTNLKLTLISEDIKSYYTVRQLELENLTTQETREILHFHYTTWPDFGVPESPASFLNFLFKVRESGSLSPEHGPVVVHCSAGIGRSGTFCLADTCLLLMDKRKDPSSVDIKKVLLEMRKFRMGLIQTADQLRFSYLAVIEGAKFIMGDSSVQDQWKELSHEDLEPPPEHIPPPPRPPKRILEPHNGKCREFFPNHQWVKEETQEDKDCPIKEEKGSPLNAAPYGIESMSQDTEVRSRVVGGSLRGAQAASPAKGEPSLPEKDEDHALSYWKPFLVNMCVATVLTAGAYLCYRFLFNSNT
Briefly: Binding affinity to PTP1B.

In general, Ki refers to a dissociation constant, usually derived from enzyme kinetics or from competition with a known ligand. Read a low Ki as a stronger hold on the target.

In the case of `O=C(O)C(=O)Nc1sc2c(c1C(=O)O)CCC1(C2)OCCO1`, the affinity corresponds to a Ki of 2.2 µM.

For the origin of these results see ChEMBL document CHEMBL1141964, “Molecular docking and 3D-QSAR on 2-(oxalylamino) benzoic acid and its analogues as protein tyrosine phosphatase 1B inhibitors” (Bioorg Med Chem Lett, 2005).
